# Values of other authors in US20100284933A1, “Biomarkers of Multiple Sclerosis” (Biogen Idec MA Inc., priority 2006, published 2010).
# What was measured:
# [1] = test system: CBRs; settings: background statement
# [2] = molecular target: PBRs (Homo sapiens, UniProt P30536); settings: background statement
# Chain of PBRs (P30536 whole entry): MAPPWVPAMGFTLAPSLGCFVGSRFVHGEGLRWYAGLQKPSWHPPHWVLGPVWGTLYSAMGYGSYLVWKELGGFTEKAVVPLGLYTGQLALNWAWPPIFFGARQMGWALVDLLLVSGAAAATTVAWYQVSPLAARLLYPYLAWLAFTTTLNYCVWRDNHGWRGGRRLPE
smiles,measurement,setting,value
CCC(C)N(C)C(=O)c1cc2ccccc2c(-c2ccccc2Cl)n1 (stereo not shown) [PK 11195],affinity for CBRs,[1],negligible affinity
same,affinity for PBRs,[2],high affinity
"CN1C(=O)CN=C(c2ccc(Cl)cc2)c2cc(Cl)ccc21 [Ro 5-4864, 4′-chlorodiazepam]",affinity for CBRs,[1],negligible affinity
same,affinity for PBRs,[2],high affinity
